Data from US20120029187A1, “HALOALKYLSULFONANILIDE DERIVATIVE” (Nissan Chemical Industries, Ltd., priority 2009, published 2012).

Columns and labels:
Assay type in all cases: in vivo
[1] = tested on: barnyardgrass; assay: Test Example 1: herbicidal effects in preemergence treatment under submerged conditions; settings: dose 2.52 g/a
How it was run: (§1)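 Alluvial soil flooded to 4 cm depth; barnyardgrass, bulrush and ducksalad sown and 2.5-leaf rice seedlings transplanted. Same day, water-diluted emulsifiable concentrates applied to the water surface at set doses (g/a). Kept at 25–30 °C in greenhouse; effects scored 0–5 by mortality after three weeks.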

[2] = tested on: bulrush; assay: as above; settings: dose 2.52 g/a
How it was run: as §1

[3] = tested on: ducksalad; assay: as above; settings: dose 2.52 g/a
How it was run: as §1

[4] = tested on: transplanted rice; assay: Test Example 1: preemergence treatment under submerged conditions, effect on crop; settings: dose 2.52 g/a
How it was run: as §1

[5] = tested on: barnyardgrass; assay: Test Example 2: herbicidal effects during the vegetation period under submerged conditions; settings: treatment during the vegetation period under submerged conditions; dose 2.52 g/a
How it was run: (§2)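 Barnyardgrass, bulrush and ducksalad were co-sown in alluvial soil flooded to 4 cm and grown in a greenhouse at 25 to 30° C. At the 1- or 2-leaf stage, water-diluted emulsifiable concentrates went onto the water surface at set doses (g/a). Herbicidal effect was scored three weeks later on a graded scale.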

[6] = tested on: bulrush; assay: as above; settings: treatment during the vegetation period under submerged conditions; dose 2.52 g/a
How it was run: as §2

[7] = tested on: ducksalad; assay: as above; settings: treatment during the vegetation period under submerged conditions; dose 2.52 g/a
How it was run: as §2

[8] = tested on: Italian ryegrass; assay: Test Example 3: herbicidal effects in soil treatment; settings: dose 6.3 g/a
How it was run: (§3)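 Seeds were sown in sterilized diluvial soil and covered with about 1.5 cm of soil. Compounds, formulated as emulsifiable concentrates and diluted with water, were sprayed evenly over the soil surface at set doses in g/a. Herbicidal effect was scored on a rating scale three weeks later.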

[9] = tested on: barnyardgrass; assay: as above; settings: dose 6.3 g/a
How it was run: as §3

[10] = tested on: common chickweed; assay: as above; settings: dose 6.3 g/a
How it was run: as §3

[11] = tested on: common lambsquater; assay: as above; settings: dose 6.3 g/a
How it was run: as §3

[12] = tested on: common ragweed; assay: as above; settings: dose 6.3 g/a
How it was run: as §3

[13] = tested on: giant foxtail; assay: as above; settings: dose 6.3 g/a
How it was run: as §3

[14] = tested on: large crabgrass; assay: as above; settings: dose 6.3 g/a
How it was run: as §3

[15] = tested on: posumbu knotweed; assay: as above; settings: dose 6.3 g/a
How it was run: as §3

[16] = tested on: redroot pigweed; assay: as above; settings: dose 6.3 g/a
How it was run: as §3

[17] = tested on: velvetleaf; assay: as above; settings: dose 6.3 g/a
How it was run: as §3

[18] = tested on: water foxtail; assay: as above; settings: dose 6.3 g/a
How it was run: as §3

[19] = tested on: wild oat; assay: as above; settings: dose 6.3 g/a
How it was run: as §3

[20] = tested on: Italian ryegrass; assay: Test Example 4: herbicidal effect in foliage treatment; settings: dose 6.3 g/a, three weeks after application
How it was run: (§4)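 A uniform foliar spray of emulsifiable concentrate, diluted with water to give the stated g/a dose, was applied to plants raised for 14 days from seed in sterilized diluvial soil at 25 to 30° C. Herbicidal effects were scored three weeks later.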

[21] = tested on: barnyardgrass; assay: as above; settings: dose 6.3 g/a, three weeks after application
How it was run: as §4

[22] = tested on: beadstraw; assay: as above; settings: dose 6.3 g/a, three weeks after application
How it was run: as §4

[23] = tested on: common chickweed; assay: as above; settings: dose 6.3 g/a, three weeks after application
How it was run: as §4

[24] = tested on: common lambsquater; assay: as above; settings: dose 6.3 g/a, three weeks after application
How it was run: as §4

[25] = tested on: common ragweed; assay: as above; settings: dose 6.3 g/a, three weeks after application
How it was run: as §4

[26] = tested on: giant foxtail; assay: as above; settings: dose 6.3 g/a, three weeks after application
How it was run: as §4

[27] = tested on: large crabgrass; assay: as above; settings: dose 6.3 g/a, three weeks after application
How it was run: as §4

[28] = tested on: posumbu knotweed; assay: as above; settings: dose 6.3 g/a, three weeks after application
How it was run: as §4

[29] = tested on: redroot pigweed; assay: as above; settings: dose 6.3 g/a, three weeks after application
How it was run: as §4

[30] = tested on: velvetleaf; assay: as above; settings: dose 6.3 g/a, three weeks after application
How it was run: as §4

[31] = tested on: water foxtail; assay: as above; settings: dose 6.3 g/a, three weeks after application
How it was run: as §4

[32] = tested on: wild oat; assay: as above; settings: dose 6.3 g/a, three weeks after application
How it was run: as §4

CCOC(=O)N(c1ccccc1CN1CCOC(C)C1=O)S(=O)(=O)C(F)(F)F (centres unmarked) [Compound I-5, 2-methyl-4-[2-(N-ethoxycarbonyl-N-trifluoromethanesulfonyl)aminobenzyl]-1,4-oxazinan-3-one]
A: barnyardgrass, herbicidal effect (evaluation scale 0-5) [1]: 5 (mortality of 90% or above (nearly complete death))
B: bulrush, herbicidal effect (evaluation scale 0-5) [2]: 5 (mortality of 90% or above (nearly complete death))
C: ducksalad, herbicidal effect (evaluation scale 0-5) [3]: 5 (mortality of 90% or above (nearly complete death))
a: transplanted rice, effect on crop (evaluation scale 0-5) [4]: 0 (mortality of less than 5% (almost ineffective))
A: barnyardgrass, herbicidal effect (evaluation scale 0-5) [5]: 5 (mortality of 90% or above (nearly complete death))
B: bulrush, herbicidal effect (evaluation scale 0-5) [6]: 5 (mortality of 90% or above (nearly complete death))
C: ducksalad, herbicidal effect (evaluation scale 0-5) [7]: 5 (mortality of 90% or above (nearly complete death))
H: Italian ryegrass, herbicidal effect (evaluation scale 0-5) [8]: 1 (mortality of at least 5% and less than 20%)
A: barnyardgrass, herbicidal effect (evaluation scale 0-5) [9]: 5 (mortality of 90% or above (nearly complete death))
N: common chickweed, herbicidal effect (evaluation scale 0-5) [10]: 5 (mortality of 90% or above (nearly complete death))
L: common lambsquater, herbicidal effect (evaluation scale 0-5) [11]: 5 (mortality of 90% or above (nearly complete death))
J: common ragweed, herbicidal effect (evaluation scale 0-5) [12]: 4 (mortality of at least 70% and less than 90%)
E: giant foxtail, herbicidal effect (evaluation scale 0-5) [13]: 5 (mortality of 90% or above (nearly complete death))
D: large crabgrass, herbicidal effect (evaluation scale 0-5) [14]: 5 (mortality of 90% or above (nearly complete death))
M: posumbu knotweed, herbicidal effect (evaluation scale 0-5) [15]: 4 (mortality of at least 70% and less than 90%)
K: redroot pigweed, herbicidal effect (evaluation scale 0-5) [16]: 4 (mortality of at least 70% and less than 90%)
I: velvetleaf, herbicidal effect (evaluation scale 0-5) [17]: 4 (mortality of at least 70% and less than 90%)
G: water foxtail, herbicidal effect (evaluation scale 0-5) [18]: 5 (mortality of 90% or above (nearly complete death))
F: wild oat, herbicidal effect (evaluation scale 0-5) [19]: 3 (mortality of at least 40% and less than 70%)
H: Italian ryegrass, herbicidal effect [20]: 4 (mortality of at least 70% and less than 90%)
A: barnyardgrass, herbicidal effect [21]: 5 (mortality of 90% or above (nearly complete death))
O: beadstraw, herbicidal effect [22]: 3 (mortality of at least 40% and less than 70%)
N: common chickweed, herbicidal effect [23]: 4 (mortality of at least 70% and less than 90%)
L: common lambsquater, herbicidal effect [24]: 3 (mortality of at least 40% and less than 70%)
J: common ragweed, herbicidal effect [25]: 4 (mortality of at least 70% and less than 90%)
E: giant foxtail, herbicidal effect [26]: 4 (mortality of at least 70% and less than 90%)
D: large crabgrass, herbicidal effect [27]: 5 (mortality of 90% or above (nearly complete death))
M: posumbu knotweed, herbicidal effect [28]: 4 (mortality of at least 70% and less than 90%)
K: redroot pigweed, herbicidal effect [29]: 3 (mortality of at least 40% and less than 70%)
I: velvetleaf, herbicidal effect [30]: 4 (mortality of at least 70% and less than 90%)
G: water foxtail, herbicidal effect [31]: 5 (mortality of 90% or above (nearly complete death))
F: wild oat, herbicidal effect [32]: 2 (mortality of at least 20% and less than 40%)
